The values below come from patent US12338237B2, “Derivatives having 1,2,3,4-tetrahydronaphthalene moiety or pharmaceutically acceptable salt thereof and pharmaceutical compositions comprising the same” (YUHAN CORPORATION, priority 2019, dated 2025).

Read-outs that look alike come from different tables or passages of the source.

In test [1] the target is glucosylceramide synthase (GCS) (Homo sapiens (Human), UniProt Q16739). In words: Evaluation of inhibitory activities against GCS (enzyme reaction with A549 cell lysate, NBD C6-ceramide, HPLC fluorescence). The format is biochemical. The conditions noted are these: GCS activity in A549 cell lysate, 37° C. for 90 minutes. In short, it runs like this:
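Lysate of A549 cells in 50 mM HEPES pH 7.3 incubated with test compound and NBD C6-ceramide at 37 °C for 90 min; lipids extracted with chloroform/methanol and GlcCer and ceramide peaks quantified by HPLC fluorescence. Activity from GlcCer area fraction, normalised between DMSO and ibiglustat controls.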

Test [2] deals with GM1 production. Put plainly: cells. The format is cell-based.

Sequence of glucosylceramide synthase (GCS) (Q16739 whole entry, looked up): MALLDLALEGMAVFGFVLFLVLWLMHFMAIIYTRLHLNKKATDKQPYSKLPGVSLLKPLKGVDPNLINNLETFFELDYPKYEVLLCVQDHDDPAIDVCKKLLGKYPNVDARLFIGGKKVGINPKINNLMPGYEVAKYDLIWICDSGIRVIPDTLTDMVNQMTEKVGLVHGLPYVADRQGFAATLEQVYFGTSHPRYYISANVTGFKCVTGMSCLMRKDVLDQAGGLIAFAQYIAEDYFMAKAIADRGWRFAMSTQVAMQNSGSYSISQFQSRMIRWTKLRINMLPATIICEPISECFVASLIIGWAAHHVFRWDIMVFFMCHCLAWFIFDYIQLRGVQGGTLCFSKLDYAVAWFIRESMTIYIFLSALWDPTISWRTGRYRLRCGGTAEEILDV

For `CCOc1ccc(-c2ccc3c(c2)CCC(C)(C)C3NC(=O)O[C@@H]2CN3CCC2CC3)cc1Cl` (stereo partly drawn) [Example 140, (S)-quinuclidin-3-yl (6-(3-chloro-4-ethoxyphenyl)-2,2-dimethyl-1,2,3,4-tetrahydronaphthalen-1-yl)carbamate], the IC50 in test [1] came to 1.49 nM; in test [2] (Homo sapiens, Jurkat, 72 h) it was 1.4 nM.
For `CCCOc1ccc(-c2ccc3c(c2)CCC(C)(C)C3NC(=O)O[C@@H]2CN3CCC2CC3)cc1Cl` (stereo partly drawn) [Example 141, (S)-quinuclidin-3-yl (6-(3-chloro-4-propoxyphenyl)-2,2-dimethyl-1,2,3,4-tetrahydronaphthalen-1-yl)carbamate] the same measures were 1.51 nM and 1.1 nM.
On to `CC(C)Oc1ccc(-c2ccc3c(c2)CCC(C)(C)C3NC(=O)O[C@@H]2CN3CCC2CC3)cc1F` (stereo partly drawn) [Example 142, (S)-quinuclidin-3-yl (6-(3-fluoro-4-isopropoxyphenyl)-2,2-dimethyl-1,2,3,4-tetrahydronaphthalen-1-yl)carbamate], for which the IC50 turned out to be 1.11 nM in test [1] and 3.4 nM in test [2] (Homo sapiens, Jurkat, 72 h).
As to `CCCCOc1ccc(-c2ccc3c(c2)CCC(C)(C)C3NC(=O)O[C@@H]2CN3CCC2CC3)cc1Cl` (stereo partly drawn) [Example 143, (S)-quinuclidin-3-yl (6-(4-butoxy-3-chlorophenyl)-2,2-dimethyl-1,2,3,4-tetrahydronaphthalen-1-yl)carbamate], the IC50 in test [1] amounted to 1.44 nM; in test [2] (Homo sapiens, Jurkat, 72 h), 0.5 nM.
With `CCOc1ccc(-c2ccc3c(c2)CCC(C)(C)C3NC(=O)O[C@@H]2CN3CCC2CC3)cc1F` (stereo partly drawn) [Example 144, (S)-quinuclidin-3-yl (6-(4-ethoxy-3-fluorophenyl)-2,2-dimethyl-1,2,3,4-tetrahydronaphthalen-1-yl)carbamate], the IC50 in test [1] is 1.39 nM; in test [2] (Homo sapiens, Jurkat, 72 h), 1.6 nM.
Take `CCCOc1ccc(-c2ccc3c(c2)CCC(C)(C)C3NC(=O)O[C@@H]2CN3CCC2CC3)cc1F` (stereo partly drawn) [Example 145, (S)-quinuclidin-3-yl (6-(3-fluoro-4-propoxyphenyl)-2,2-dimethyl-1,2,3,4-tetrahydronaphthalen-1-yl)carbamate]: the IC50 was 0.87 nM in test [1] and 0.7 nM in test [2] (Homo sapiens, Jurkat, 72 h).
With `CCCOc1c(C)cc(-c2ccc3c(c2)CCC(C)(C)C3NC(=O)O[C@@H]2CN3CCC2CC3)cc1C` (stereo partly drawn) [Example 146, (S)-quinuclidin-3-yl (6-(3,5-dimethyl-4-propoxyphenyl)-2,2-dimethyl-1,2,3,4-tetrahydronaphthalen-1-yl) carbamate], the IC50 in test [1] turned out to be 1.8 nM; in test [2] (read-out: IC50), 0.8 nM.
As for `CCCCOc1c(C)cc(-c2ccc3c(c2)CCC(C)(C)C3NC(=O)O[C@@H]2CN3CCC2CC3)cc1C` (stereo partly drawn) [Example 147, (S)-quinuclidin-3-yl (6-(4-butoxy-3,5-dimethylphenyl)-2,2-dimethyl-1,2,3,4-tetrahydronaphthalen-1-yl)carbamate], the IC50 is 1 nM in test [1] and 0.1 nM in test [2] (Homo sapiens, Jurkat, 72 h).
In the case of `COc1ccc(-c2ccc3c(c2)CCC(C)(C)C3NC(=O)O[C@@H]2CN3CCC2CC3)c(F)c1` (stereo partly drawn) [Example 148, (S)-quinuclidin-3-yl (6-(2-fluoro-4-methoxyphenyl)-2,2-dimethyl-1,2,3,4-tetrahydronaphthalen-1-yl)carbamate], the IC50 in test [1] is 3.21 nM; in test [2] (Homo sapiens, Jurkat, 72 h), 4.6 nM.
For `CC(C)Oc1ccc(-c2ccc3c(c2)CCC(C)(C)C3NC(=O)O[C@@H]2CN3CCC2CC3)cc1Cl` (stereo partly drawn) [Example 149, (S)-quinuclidin-3-yl (6-(3-chloro-4-isopropoxyphenyl)-2,2-dimethyl-1,2,3,4-tetrahydronaphthalen-1-yl)carbamate] the same measures were 3.5 nM and 3.9 nM.
Regarding `CC(=O)c1sccc1-c1ccc2c(c1)CCC(C)(C)C2NC(=O)O[C@@H]1CN2CCC1CC2` (stereo partly drawn) [Example 150, (S)-quinuclidin-3-yl (6-(2-acetylthiophen-3-yl)-2,2-dimethyl-1,2,3,4-tetrahydronaphthalen-1-yl)carbamate], the IC50 stood at 8.7 nM in test [1] and 17.1 nM in test [2] (Homo sapiens, Jurkat, 72 h).
With `CC1(C)CCc2ccc(-c3ccc(F)cc3)cc2C1NC(=O)O[C@@H]1CN2CCC1CC2` (stereo partly drawn) [Example 151, (S)-quinuclidin-3-yl (7-(4-fluorophenyl)-2,2-dimethyl-1,2,3,4-tetrahydronaphthalen-1-yl)carbamate], the concentration for half-maximal inhibition (IC50) in test [1] came to 7.27 nM; in test [2] (Homo sapiens, Jurkat, 72 h), 33.4 nM.
As for `CC1(C)CCc2ccc(-c3ccc(Cl)cc3)cc2C1NC(=O)O[C@@H]1CN2CCC1CC2` (stereo partly drawn) [Example 152, (S)-quinuclidin-3-yl (7-(4-chlorophenyl)-2,2-dimethyl-1,2,3,4-tetrahydronaphthalen-1-yl)carbamate], the IC50 stood at 5.72 nM in test [1] and 25.9 nM in test [2] (Homo sapiens, Jurkat, 72 h).
On the same counts, the results for `CC1(C)CCc2ccc(-c3ccc(C(F)(F)F)cc3)cc2C1NC(=O)O[C@@H]1CN2CCC1CC2` (stereo partly drawn) [Example 153, (S)-quinuclidin-3-yl (2,2-dimethyl-7-(4-(trifluoromethyl)phenyl)-1,2,3,4-tetrahydronaphthalen-1-yl)carbamate] are 4.43 nM and 5.54 nM.
For the compound `CC1(C)CCc2ccc(-c3ccc(OC(F)(F)F)cc3)cc2C1NC(=O)O[C@@H]1CN2CCC1CC2` (stereo partly drawn) [Example 154, (S)-quinuclidin-3-yl (2,2-dimethyl-7-(4-(trifluoromethoxy)phenyl)-1,2,3,4-tetrahydronaphthalen-1-yl)carbamate], the IC50 in test [1] is 8.4 nM; in test [2] (Homo sapiens, Jurkat, 72 h), 17.7 nM.
As for `CC1(C)CCc2ccc(-c3cccc(F)c3)cc2C1NC(=O)O[C@@H]1CN2CCC1CC2` (stereo partly drawn) [Example 155, (S)-quinuclidin-3-yl (7-(3-fluorophenyl)-2,2-dimethyl-1,2,3,4-tetrahydronaphthalen-1-yl)carbamate], the IC50 in test [1] turned out to be 21 nM; in test [2] (Homo sapiens, Jurkat, 72 h), 108 nM.
On the same counts, the results for `CC1(C)CCc2ccc(-c3cccc(Cl)c3)cc2C1NC(=O)O[C@@H]1CN2CCC1CC2` (stereo partly drawn) [Example 156, (S)-quinuclidin-3-yl (7-(3-chlorophenyl)-2,2-dimethyl-1,2,3,4-tetrahydronaphthalen-1-yl)carbamate] are 19.6 nM and 132 nM.
For the compound `CC1(C)CCc2ccc(-c3cccc(C(F)(F)F)c3)cc2C1NC(=O)O[C@@H]1CN2CCC1CC2` (stereo partly drawn) [Example 157, (S)-quinuclidin-3-yl (2,2-dimethyl-7-(3-(trifluoromethyl)phenyl)-1,2,3,4-tetrahydronaphthalen-1-yl)carbamate], the IC50 in test [1] stood at 32.2 nM; in test [2] (Homo sapiens, Jurkat, 72 h), 120 nM.
With `CC1(C)CCc2ccc(-c3cccc(OC(F)(F)F)c3)cc2C1NC(=O)O[C@@H]1CN2CCC1CC2` (stereo partly drawn) [Example 158, (S)-quinuclidin-3-yl (2,2-dimethyl-7-(3-(trifluoromethoxy)phenyl)-1,2,3,4-tetrahydronaphthalen-1-yl)carbamate], the IC50 in test [1] came to 34.2 nM; in test [2] (Homo sapiens, Jurkat, 72 h), 249 nM.
With `CC1(C)CCc2ccc(-c3ccccc3F)cc2C1NC(=O)O[C@@H]1CN2CCC1CC2` (stereo partly drawn) [Example 159, (S)-quinuclidin-3-yl (7-(2-fluorophenyl)-2,2-dimethyl-1,2,3,4-tetrahydronaphthalen-1-yl)carbamate], the IC50 in test [1] was 10.9 nM; in test [2] (Homo sapiens, Jurkat, 72 h), 49.8 nM.
For the compound `CC1(C)CCc2ccc(-c3ccccc3Cl)cc2C1NC(=O)O[C@@H]1CN2CCC1CC2` (stereo partly drawn) [Example 160, (S)-quinuclidin-3-yl (7-(2-chlorophenyl)-2,2-dimethyl-1,2,3,4-tetrahydronaphthalen-1-yl)carbamate], the IC50 was determined as 14.5 nM in test [1] and 67.7 nM in test [2] (Homo sapiens, Jurkat, 72 h).

As usually defined, the IC50 is the point on the concentration scale where inhibition reaches its midpoint.
